# Assay results reported in PMC10403574, “Discovery of a pyrrole-pyridinimidazole derivative as novel SIRT6 inhibitor for sensitizing pancreatic cancer to gemcitabine” (Cell Death & Disease, 2023).
# How the values were obtained:
# SIRT6 [1] = molecular target: T1, SIRT6 (Homo sapiens, UniProt Q8N6T7); experiment: Fluor-De-Lys (FDL) SIRT6 deacetylation assay; format: biochemical; set-up: The human full-length SIRT6 gene was inserted into the prokaryotic expression vector (pET-28a (+)); inferred from the pET-28a(+) vector, Ni-NTA purification and Ni-NTA biosensor loading); made in house; host or cells: Escherichia coli BL21 (DE3); details: fixed concentration of 25 μM, RHKK-Ac-AMC, NI = no inhibition; for inhibition at 25 µM: read-out: Inhibition rate (%)
# Method: The human full-length SIRT6 gene was inserted into the prokaryotic expression vector (pET-28a (+)). The verified recombinant plasmid was transformed into Escherichia coli BL21 (DE3) expression strain and cultured overnight at 37 °C on LB plates supplemented with 50 μg/mL kanamycin. Single colonies were inoculated in fluid kanamycin-containing LB mediums. It was shaken at 160 rpm for 16 h at 37 °C and transferred to kanamycin-containing LB medium at a ratio of 1:100. It was shaken at 160 rpm at 37 °C until the OD600 reached 0.6. The Isopropyl-β-d-thiogalactopyranoside was added to make the final concentration of solution 0.5 mmol/L, cultured for 15 °C and 160 rpm for 24 h.
# Bacterial liquid was harvested at 12,000 rpm at 4 °C for 20 min, and then re-suspended in Lysis buffer (20 mmol/L Hepes pH 7.5, 20 mmol/L imidazole, 5% Glycerol, 500 mmol/L NaCl). Cell pellets were disrupted by high-pressure crusher (JNBIO, Guangzhou China) and centrifuged (4 °C, 12000 rpm, for 20 min). Supernatant was collected and purified by FPLC with a 1 mL Ni–NTA Sepharose column (GE Healthcare, Stamford, USA). The SIRT6 protein was eluted at containing 50 mM, 100 mM, 150 mM, 200 mM, and 500 mM imidazole in elution buffer. The purified SIRT6 protein was dialyzed in dialysis buffer (50 mM Tris-HCl, 137 mM NaCl, 2.7 mM KCl, 1 mM MgCl2). The purified SIRT6 protein was analyzed by SDS-PAGE.
# Fluor-De-Lys (FDL) assays were used for the examination of the deacetylation activities of sirtuins as described previously. For the detection of SIRT6 activity, the 50-μL reaction mixture contained 5 μM SIRT6, 2.5 mM NAD^+ (β-Nicotinamide adenine dinucleotide hydrate, Sigma, N1636), 75 μM RHKK-Ac-AMC (GL Biochem, Shanghai), compounds/DMSO, and assay buffer. The reactions were incubated at 37 °C for 2 h, added 50 μL stop solution (40 mM nicotinamide, 6 mg/mL trypsin) at 25 °C for 30 min. Fluorescence intensity was measured at an excitation wavelength of 360 nm and an emission wavelength of 460 nm. IC50 values were calculated in GraphPad Prism version 8.00.
# BXPC-3 xenografts = experiment: BXPC-3 tumor xenograft in nude mice; format: in vivo, BALB/c nude mice; details: gemcitabine 10 mg/kg i.p. once every 2 days for 4 weeks
# Method: Female BALB/c nude mice (14 ± 2 g, 4 weeks old) were purchase. About 2 × 10^6 of BXPC-3 cells were inoculated into nude mouse flanks. When the tumor volume reached approximately 100 mm^3, mice were randomly divided into four groups with six mice per group before treatment and then treated with vehicle, 8a (20 mg/kg), gemcitabine (10 mg/kg) and their combination every 2 days. Tumor volumes and body weight were measured every 3 days, and use the formula to calculate the tumor volume: V = (L × W × W)/2 (V, tumor volume; L, length; and W, width). Mice were sacrificed and tumor tissues were removed. Tumor tissues were fixed with paraformaldehyde (4%) and embedded with paraffin.
# To further confirm whether 8a can enhance the antitumor effects of gemcitabine in vivo, the BXPC-3 PDAC xenografts were used. The mice with tumors received intraperitoneal injection of compound 8a (20 mg/kg), gemcitabine (10 mg/kg), or their combination once every 2 days for 4 weeks. Tumor volumes and body weight of mice were monitored every 3 days.
# BXPC-3 cells = experiment: γ-H2AX DNA damage (immunofluorescence, western blot); format: cell-based; details: BXPC-3, 10 nM gemcitabine, 6.25 μM 8a or combination, 24 h
# Method: Cells were harvested and lysed in a lysis buffer (solarbio, R0010) supplementing 1 mM PMSF and protease inhibitor (TargetMol, USA). […] Then, the membranes were detected by Tanon 5200 (Tanon, Beijing, China). […]
# SIRT6 [2] = molecular target: T1, SIRT6; set-up: endogenous in cells; host or cells: HeLa; details: cited from earlier work
# T1 sequence (Q8N6T7 whole entry): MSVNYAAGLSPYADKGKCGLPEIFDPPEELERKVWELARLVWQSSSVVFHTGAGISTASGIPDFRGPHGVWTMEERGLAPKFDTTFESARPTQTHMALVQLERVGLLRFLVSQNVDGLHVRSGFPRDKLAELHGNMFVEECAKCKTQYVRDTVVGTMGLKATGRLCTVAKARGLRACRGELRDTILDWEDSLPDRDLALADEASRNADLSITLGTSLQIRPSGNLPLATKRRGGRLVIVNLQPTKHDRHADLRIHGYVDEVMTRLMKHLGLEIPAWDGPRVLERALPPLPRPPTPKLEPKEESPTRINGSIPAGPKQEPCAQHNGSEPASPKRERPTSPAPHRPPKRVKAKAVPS
smiles,measurement,setting,value
Brc1cc(-c2nccc3c2ncn3CCCCCCN2CCCCC2)[nH]c1Br.O=C(O)C(F)(F)F [Compound 10d],Inhibition rate (%),SIRT6 [1],16.7%
O=C(O)C(F)(F)F.O=C1c2ccccc2C(=O)N1CCCCCCn1cnc2c(-c3cc(Br)c(Br)[nH]3)nccc21 [Compound 10c],Inhibition rate (%),SIRT6 [1],6.4%
Nc1ccn([C@@H]2O[C@H](CO)[C@@H](O)C2(F)F)c(=O)n1 [gemcitabine],tumor mass inhibition,BXPC-3 xenografts,30.1%
same,γ-H2AX foci,BXPC-3 cells,can cause γ-H2AX foci
Brc1cc(-c2nccc3c2ncn3CCCCCCN2CCOCC2)n(CCCCCCN2CCOCC2)c1Br [Compound 11b],Inhibition rate (%),SIRT6 [1],23.8%
Cn1c(-c2nccc3[nH]cnc23)cc(Br)c1Br [Compound 1c],inhibition at 25 µM,SIRT6 [1],3.7%
BrCCCCCCn1cnc2c(-c3cc(Br)c(Br)[nH]3)nccc21.O=C(O)C(F)(F)F [Compound 4a],Inhibition rate (%),SIRT6 [1],5.3%
O=C(Nc1ccc(O)c(C(=O)O)c1)c1cccc(NC(=O)c2ccco2)c1 [OSS_128167],IC50,SIRT6 [2],89 µM
BrCCCCCCn1c(-c2nccc3c2ncn3CCCCCCBr)cc(Br)c1Br [Compound 11a],inhibition at 25 µM,SIRT6 [1],< 0%
Brc1cc(-c2nccc3[nH]cnc23)[nH]c1Br.O=C(O)C(F)(F)F [Compound 2a],Inhibition rate (%),SIRT6 [1],4.1%
